Legend:
interleukin-8 (IL-8) = assay: IL-8 release by EPIOCULAR skin culture challenged with sample; format: cell-based, human; settings: for IL-8: Table 5, 6 hours; for IL-8 (n = 3): Table 6
Description: In order to evaluate the amount of skin irritation by various samples prepared in the Examples, a human skin culture was selected to model the response of the human epidermis to treated and untreated bacterial metabolized urine:TSB mixture. The tissue model selected was an EPIOCULAR Tissue Model (OCL-200 propagated without hydrocortisone), and was purchased from MatTek Corporation (Ashland, Mass.). This model consists of normal, human-derived epidermal keratinocytes, which have been cultured to form a stratified, squamous epithelium similar to that found in the cornea. The epidermal cells, which are cultured on specially prepared cell culture inserts using a serum free medium, differentiate to form a multi-layered structures which closely parallel the corneal epithelium. Experiments using this skin culture were conducted in six parallel wells. Each well contained one milliliter of pre-warmed media that was the same as the model skin culture media. The plates were then incubated in a 37° C., 5% carbon dioxide atmosphere for thirty minutes. After incubation, 25 microliters of the sample were applied to the surface of the model skin culture after removing any residual media. After application of the test solution, the well plates were incubate for 6 hours in the 37° C., 5% carbon dioxide atmosphere. At the end of 6 hours, the well plates were removed from the incubator and the underlying media removed and stored at −80° C. The response of the skin culture to test the compositions/control and the insult solution is determined by measuring the amount of interleukin-1 alpha (IL-1a) and/or interleukin-8 (IL-8). IL-1a and IL-8 were quantified using an Interleukin-1 alpha or Interleukin-8 Quantikine Kit available from R&D Systems (Minneapolis, Minn.).

Proteus mirabilis = assay: Growth of aerobically cultivated Proteus mirabilis in urine:TSB, microtiter serial dilution, optical density; format: cell-based; settings: for optical density (bacterial cell growth): 48 hours at 37° C., aerobic, listed as 7 Hr.
Description: Proteus mirabilis was cultured in TSB as described in Example 1 and transferred to a urine:TSB mixture (9:1) and incubated under aerobic conditions as described in Example 1. […] In a 96-well microtiter plate with a lid, 150 microliters of each 10% solution was introduced into the first and second columns of the wells. Using a multi-channel pipette, 150 microliters of urine:TSB mixture was introduced into each well except the first column. Beginning at the second column of wells, serial dilutions were made by removing 150 microliters from the second column and transferring it to the third column. The mixture was mixed by pipetting up and down three times. The serial dilutions continued across each column of the plate and, after column 11, 150 microliters was discarded leaving column 12 as the 0% solution. Each well was then inoculated with 1 microliter of Proteus mirabilis, except for the negative control rows. One to three drops of anti-fogging solution was place on the plate lids with a cotton applicator, and allowed to air dry. The mixtures were incubated for 48 hours at 37° C. under aerobic conditions. After incubation of the samples, each was analyzed for bacterial cell growth utilizing the optical density procedure as set forth in Example 1.

[1] = system: Proteus mirabilis (ATCC 29906); assay: Bacterial yield of facultatively grown Proteus mirabilis in urine:TSB (from optical density); format: cell-based; settings: for Bacterial Yields: facultative
Description: Proteus mirabilis (ATCC 29906) were recovered from frozen state by growing the appropriate bacterial coated MicroBank Bead (Pro Lab, Austin Tex.) in 10 mL trypticase soy broth (TSB, Difco, Ann Arbor, Mich.) in a 15 mL sterile loosely tightened screw capped conical tube overnight at 37° C. The tube was held stationary. (E. coli (ATCC 8739), utilized in Example 6 herein, was recovered using the same procedure described herein for Proteus mirabilis). Upon observation of turbidity, the bacterial suspension was checked for purity by isolation plate and Gram stain. Once determined that the isolate was Proteus mirabilis (or E. coli in Example 6), a colony from the isolation plate was transferred to 10 mL of TSB in a 15 mL sterile screw capped conical tube and incubated overnight at 37° C. under facultative conditions. Samples of bacterial suspension resulting from this overnight TSB culture were used to initiate all experiments utilizing Proteus mirabilis bacteria (or E. coli in Example 6).
Proteus mirabilis was taken from a TSB culture (described in (1) above) and grown under various conditions for use in the Examples. For bacteria to be grown under aerobic conditions, 50 microliters of Proteus mirabilis was taken from a TSB culture prepared as described above and inoculated into a 50 mL volume of a freshly made 9:1 (by volume) pooled adult female urine:TSB mixture into a 250 mL shake flask. This mixture was rotated at 250 rpm at 37° C. overnight to grow the bacteria. For bacteria to be grown under facultative conditions, 10 microliters of Proteus mirabilis was taken from a TSB culture prepared as described above and inoculated into a 10 mL volume of a freshly made 9:1 (by volume) pooled adult female urine:TSB mixture into a 15 mL tube. The tube was loosely fitted with a screw cap, and held stationary at 37° C. overnight to grow the bacteria. For bacteria to be grown under anaerobic conditions, 10 microliters of Proteus mirabilis was taken from a TSB culture prepared as described above and inoculated into a 10 mL volume of a freshly made 9:1 (by volume) pooled adult female urine:TSB mixture into a 15 mL conical tube. The tube was purged with nitrogen and a screw cap tightly closed, and then was held stationary overnight at 37° C. to grow the bacteria.
In this Example, five samples were prepared and analyzed to determine: (1) Bacterial Yield (CFU/mL) calculated from optical density; (3) Percent viability of EPIOCULAR; and (4) EPIOCULAR IL-8. The samples included: (1) Deionized Water; (2) A urine:TSB mixture (9:1 by volume) as described above; (3) A urine:TSB mixture containing Proteus mirabilis bacteria grown under aerobic conditions as described above; (4) A urine:TSB mixture containing Proteus mirabilis bacteria grown under facultative conditions as described above; and (5) A urine:TSB mixture containing Proteus mirabilis bacteria grown under anaerobic conditions as described above.
In this Example, six different samples were prepared for analysis. The first sample comprised a urine:TSB mixture that was prepared in the same manner as that described in Example 1. […] The tube was loosely fitted with a screw cap, and held stationary at 37° C. overnight to grow the bacteria. […] The fifth sample comprising urine:TSB:Proteus mirabilis (facultatively grown) was prepared in the same manner as that described in Example 1.

mannitol peroxide
IL-8 (interleukin-8 (IL-8); facultative Proteus mirabilis grown with 5% mannitol peroxide): 27224.30 ± 2432.83 pg/mL
IL-8 (interleukin-8 (IL-8); facultative Proteus mirabilis grown with 10% mannitol peroxide): 15884.57 ± 839.53 pg/mL
IL-8 (n = 3) (interleukin-8 (IL-8); facultative E. coli grown with 5% MP): 1769.31 ± 103.9 pg/mL
IL-8 (n = 3) (interleukin-8 (IL-8); facultative E. coli grown with 10% MP): 1336.69 ± 60.84 pg/mL
optical density (bacterial cell growth) (Proteus mirabilis; 0.0097% in urine:TSB): 0.98
optical density (bacterial cell growth) (Proteus mirabilis; 0.0195% in urine:TSB): 0.98
optical density (bacterial cell growth) (Proteus mirabilis; 0.0391% in urine:TSB): 0.95
optical density (bacterial cell growth) (Proteus mirabilis; 0.0785% in urine:TSB): 0.98
optical density (bacterial cell growth) (Proteus mirabilis; 0.156% in urine:TSB): 1.00
optical density (bacterial cell growth) (Proteus mirabilis; 0.313% in urine:TSB): 0.96
optical density (bacterial cell growth) (Proteus mirabilis; 0.625% in urine:TSB): 0.99
optical density (bacterial cell growth) (Proteus mirabilis; 1.25% in urine:TSB): 0.98
optical density (bacterial cell growth) (Proteus mirabilis; 2.5% in urine:TSB): 0.97
optical density (bacterial cell growth) (Proteus mirabilis; 5% in urine:TSB): 0.90
optical density (bacterial cell growth) (Proteus mirabilis; 10% in urine:TSB): 0.82
effect on the growth of the bacteria (Proteus mirabilis; heated at least about 7 hours at about 97° C. during synthesis, even at elevated concentrations): little effect on the growth of the bacteria
impact on the growth of the cells ([1]; 5% and 10% mannitol peroxide, facultative Proteus mirabilis (Table 4)): very little, if any, impact on the growth of the cells
Bacterial Yields ([1]; Table 3, 5% (w/v) mannitol peroxide, urine:TSB, 37° C. overnight): 1.30E+9 CFU/mL
Bacterial Yields ([1]; Table 3, 10% mannitol peroxide, urine:TSB, 37° C. overnight): 8.20E+8 CFU/mL
Bacterial Yields ([1]; Table 4, 5% mannitol peroxide): 1.30E+9 CFU/mL
Bacterial Yields ([1]; Table 4, 10% mannitol peroxide): 8.2E+8 CFU/mL
Bacterial Yields ([1]; Table 5, 5% (w/v) mannitol peroxide): 1.30E+9 CFU/mL
Bacterial Yields ([1]; Table 5, 10% (w/v) mannitol peroxide): 8.20E+8 CFU/mL
Bacterial Yields ([1]; Table 7, 5% mannitol peroxide): 8.93E+8 CFU/mL

From US7235263B2, “Processes for controlling microbial organic compound production” (Kimberly-Clark Worldwide, Inc., priority 2001, dated 2007)
